Test results reported in PubChem BioAssay (NCI).
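Briefly, cells in 96-well plates were exposed to five compound concentrations for 48 h, and endpoints were estimated by linear interpolation. TGI is the concentration that stops growth completely.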

system: MOLT-4 leukemia; assay: NCI tumour cell line growth inhibition, 48 h

Compound | TGI [µM]
Cc1c(NC(=O)/C(=N/NC(=S)N=N)C2C(=O)CC(C)(C)CC2=O)c(O)c2ccccc2c1O | 15.7
COC(=O)CCC1=NOC(CC2CC(CCC(=O)OC)=NO2)C1 (stereo unspecified) | > 100
CC(C)=CCCC(C)[C@H]1CC(O)C2(C)C3=CCC4C(C)(C)[C@@H](O)CC[C@]4(C)C3=CC[C@]12C (stereo partly specified) | 42.4
COc1ccc(C(c2ccc(C(C)C)cc(OC)c2=O)c2ccc(C(C)C)cc(OC)c2=O)cc1 | 31.3

system: KM12 colon; assay: NCI tumour cell line growth inhibition, 48 h

Compound | TGI [µM]
CCOC(=O)C1C(c2ccccc2)=C(c2ccccc2)C(c2ccccc2)=C1c1ccccc1 | > 100
Cc1c(NC(=O)/C(=N/NC(=S)N=N)C2C(=O)CC(C)(C)CC2=O)c(O)c2ccccc2c1O | 22.1
COC(=O)CCC1=NOC(CC2CC(CCC(=O)OC)=NO2)C1 (stereo unspecified) | > 100
CC(C)=CCCC(C)[C@H]1CC(O)C2(C)C3=CCC4C(C)(C)[C@@H](O)CC[C@]4(C)C3=CC[C@]12C (stereo partly specified) | > 100
COc1ccc(C(c2ccc(C(C)C)cc(OC)c2=O)c2ccc(C(C)C)cc(OC)c2=O)cc1 | 26.4

system: NCI-H23 lung; assay: NCI tumour cell line growth inhibition, 48 h

Compound | TGI [µM]
CCOC(=O)C1C(c2ccccc2)=C(c2ccccc2)C(c2ccccc2)=C1c1ccccc1 | > 100
Cc1c(NC(=O)/C(=N/NC(=S)N=N)C2C(=O)CC(C)(C)CC2=O)c(O)c2ccccc2c1O | 11.9
COC(=O)CCC1=NOC(CC2CC(CCC(=O)OC)=NO2)C1 (stereo unspecified) | > 100
CC(C)=CCCC(C)[C@H]1CC(O)C2(C)C3=CCC4C(C)(C)[C@@H](O)CC[C@]4(C)C3=CC[C@]12C (stereo partly specified) | 14.9
COc1ccc(C(c2ccc(C(C)C)cc(OC)c2=O)c2ccc(C(C)C)cc(OC)c2=O)cc1 | 30.8

system: CAKI-1 renal; assay: NCI tumour cell line growth inhibition, 48 h

Compound | TGI [µM]
CCOC(=O)C1C(c2ccccc2)=C(c2ccccc2)C(c2ccccc2)=C1c1ccccc1 | > 100
Cc1c(NC(=O)/C(=N/NC(=S)N=N)C2C(=O)CC(C)(C)CC2=O)c(O)c2ccccc2c1O | 37.6
COC(=O)CCC1=NOC(CC2CC(CCC(=O)OC)=NO2)C1 (stereo unspecified) | > 100
CC(C)=CCCC(C)[C@H]1CC(O)C2(C)C3=CCC4C(C)(C)[C@@H](O)CC[C@]4(C)C3=CC[C@]12C (stereo partly specified) | 24.4
COc1ccc(C(c2ccc(C(C)C)cc(OC)c2=O)c2ccc(C(C)C)cc(OC)c2=O)cc1 | 33.3

system: DMS 114 small cell lung; assay: NCI tumour cell line growth inhibition, 48 h

Compound | TGI [µM]
CCOC(=O)C1C(c2ccccc2)=C(c2ccccc2)C(c2ccccc2)=C1c1ccccc1 | > 100
Cc1c(NC(=O)/C(=N/NC(=S)N=N)C2C(=O)CC(C)(C)CC2=O)c(O)c2ccccc2c1O | 4.17
COC(=O)CCC1=NOC(CC2CC(CCC(=O)OC)=NO2)C1 (stereo unspecified) | > 100
CC(C)=CCCC(C)[C@H]1CC(O)C2(C)C3=CCC4C(C)(C)[C@@H](O)CC[C@]4(C)C3=CC[C@]12C (stereo partly specified) | 33.5
COc1ccc(C(c2ccc(C(C)C)cc(OC)c2=O)c2ccc(C(C)C)cc(OC)c2=O)cc1 | 24.7

system: SK-MEL-2 melanoma; assay: NCI tumour cell line growth inhibition, 48 h

Compound | TGI [µM]
CCOC(=O)C1C(c2ccccc2)=C(c2ccccc2)C(c2ccccc2)=C1c1ccccc1 | > 82.3
Cc1c(NC(=O)/C(=N/NC(=S)N=N)C2C(=O)CC(C)(C)CC2=O)c(O)c2ccccc2c1O | 26.1
COC(=O)CCC1=NOC(CC2CC(CCC(=O)OC)=NO2)C1 (stereo unspecified) | > 100
CC(C)=CCCC(C)[C@H]1CC(O)C2(C)C3=CCC4C(C)(C)[C@@H](O)CC[C@]4(C)C3=CC[C@]12C (stereo partly specified) | 79.5
COc1ccc(C(c2ccc(C(C)C)cc(OC)c2=O)c2ccc(C(C)C)cc(OC)c2=O)cc1 | 29.3

system: 786-0 renal; assay: NCI tumour cell line growth inhibition, 48 h

Compound | TGI [µM]
CCOC(=O)C1C(c2ccccc2)=C(c2ccccc2)C(c2ccccc2)=C1c1ccccc1 | 55.8
Cc1c(NC(=O)/C(=N/NC(=S)N=N)C2C(=O)CC(C)(C)CC2=O)c(O)c2ccccc2c1O | 27.2
COC(=O)CCC1=NOC(CC2CC(CCC(=O)OC)=NO2)C1 (stereo unspecified) | > 100
CC(C)=CCCC(C)[C@H]1CC(O)C2(C)C3=CCC4C(C)(C)[C@@H](O)CC[C@]4(C)C3=CC[C@]12C (stereo partly specified) | 3.52
COc1ccc(C(c2ccc(C(C)C)cc(OC)c2=O)c2ccc(C(C)C)cc(OC)c2=O)cc1 | 30.5

system: LOX IMVI melanoma; assay: NCI tumour cell line growth inhibition, 48 h

Compound | TGI [µM]
CCOC(=O)C1C(c2ccccc2)=C(c2ccccc2)C(c2ccccc2)=C1c1ccccc1 | > 100
Cc1c(NC(=O)/C(=N/NC(=S)N=N)C2C(=O)CC(C)(C)CC2=O)c(O)c2ccccc2c1O | 12
COC(=O)CCC1=NOC(CC2CC(CCC(=O)OC)=NO2)C1 (stereo unspecified) | > 100
CC(C)=CCCC(C)[C@H]1CC(O)C2(C)C3=CCC4C(C)(C)[C@@H](O)CC[C@]4(C)C3=CC[C@]12C (stereo partly specified) | 1.07
COc1ccc(C(c2ccc(C(C)C)cc(OC)c2=O)c2ccc(C(C)C)cc(OC)c2=O)cc1 | 31

system: IGROV1 ovarian; assay: NCI tumour cell line growth inhibition, 48 h

Compound | TGI [µM]
CCOC(=O)C1C(c2ccccc2)=C(c2ccccc2)C(c2ccccc2)=C1c1ccccc1 | > 70.2
Cc1c(NC(=O)/C(=N/NC(=S)N=N)C2C(=O)CC(C)(C)CC2=O)c(O)c2ccccc2c1O | 19.8
COC(=O)CCC1=NOC(CC2CC(CCC(=O)OC)=NO2)C1 (stereo unspecified) | > 100
CC(C)=CCCC(C)[C@H]1CC(O)C2(C)C3=CCC4C(C)(C)[C@@H](O)CC[C@]4(C)C3=CC[C@]12C (stereo partly specified) | 48.7

system: HL-60(TB) leukemia; assay: NCI tumour cell line growth inhibition, 48 h

Compound | TGI [µM]
CCOC(=O)C1C(c2ccccc2)=C(c2ccccc2)C(c2ccccc2)=C1c1ccccc1 | > 100
Cc1c(NC(=O)/C(=N/NC(=S)N=N)C2C(=O)CC(C)(C)CC2=O)c(O)c2ccccc2c1O | 22.7
COC(=O)CCC1=NOC(CC2CC(CCC(=O)OC)=NO2)C1 (stereo unspecified) | > 100
CC(C)=CCCC(C)[C@H]1CC(O)C2(C)C3=CCC4C(C)(C)[C@@H](O)CC[C@]4(C)C3=CC[C@]12C (stereo partly specified) | 35
COc1ccc(C(c2ccc(C(C)C)cc(OC)c2=O)c2ccc(C(C)C)cc(OC)c2=O)cc1 | 41.9

system: M14 melanoma; assay: NCI tumour cell line growth inhibition, 48 h

Compound | TGI [µM]
CCOC(=O)C1C(c2ccccc2)=C(c2ccccc2)C(c2ccccc2)=C1c1ccccc1 | > 100
Cc1c(NC(=O)/C(=N/NC(=S)N=N)C2C(=O)CC(C)(C)CC2=O)c(O)c2ccccc2c1O | 18.5
COC(=O)CCC1=NOC(CC2CC(CCC(=O)OC)=NO2)C1 (stereo unspecified) | > 100
CC(C)=CCCC(C)[C@H]1CC(O)C2(C)C3=CCC4C(C)(C)[C@@H](O)CC[C@]4(C)C3=CC[C@]12C (stereo partly specified) | 18.5
COc1ccc(C(c2ccc(C(C)C)cc(OC)c2=O)c2ccc(C(C)C)cc(OC)c2=O)cc1 | 28

system: UO-31 renal; assay: NCI tumour cell line growth inhibition, 48 h

Compound | TGI [µM]
CCOC(=O)C1C(c2ccccc2)=C(c2ccccc2)C(c2ccccc2)=C1c1ccccc1 | > 93.7
Cc1c(NC(=O)/C(=N/NC(=S)N=N)C2C(=O)CC(C)(C)CC2=O)c(O)c2ccccc2c1O | 25.4
COC(=O)CCC1=NOC(CC2CC(CCC(=O)OC)=NO2)C1 (stereo unspecified) | > 100
CC(C)=CCCC(C)[C@H]1CC(O)C2(C)C3=CCC4C(C)(C)[C@@H](O)CC[C@]4(C)C3=CC[C@]12C (stereo partly specified) | 41.6
COc1ccc(C(c2ccc(C(C)C)cc(OC)c2=O)c2ccc(C(C)C)cc(OC)c2=O)cc1 | 27.3

system: SF-268 CNS; assay: NCI tumour cell line growth inhibition, 48 h

Compound | TGI [µM]
CCOC(=O)C1C(c2ccccc2)=C(c2ccccc2)C(c2ccccc2)=C1c1ccccc1 | > 100
Cc1c(NC(=O)/C(=N/NC(=S)N=N)C2C(=O)CC(C)(C)CC2=O)c(O)c2ccccc2c1O | 21.7
COC(=O)CCC1=NOC(CC2CC(CCC(=O)OC)=NO2)C1 (stereo unspecified) | > 100
CC(C)=CCCC(C)[C@H]1CC(O)C2(C)C3=CCC4C(C)(C)[C@@H](O)CC[C@]4(C)C3=CC[C@]12C (stereo partly specified) | 28.3
COc1ccc(C(c2ccc(C(C)C)cc(OC)c2=O)c2ccc(C(C)C)cc(OC)c2=O)cc1 | 26.5

system: M19-MEL melanoma; assay: NCI tumour cell line growth inhibition, 48 h

Compound | TGI [µM]
CCOC(=O)C1C(c2ccccc2)=C(c2ccccc2)C(c2ccccc2)=C1c1ccccc1 | > 100
Cc1c(NC(=O)/C(=N/NC(=S)N=N)C2C(=O)CC(C)(C)CC2=O)c(O)c2ccccc2c1O | 2.95
COC(=O)CCC1=NOC(CC2CC(CCC(=O)OC)=NO2)C1 (stereo unspecified) | > 100
CC(C)=CCCC(C)[C@H]1CC(O)C2(C)C3=CCC4C(C)(C)[C@@H](O)CC[C@]4(C)C3=CC[C@]12C (stereo partly specified) | 13.8
COc1ccc(C(c2ccc(C(C)C)cc(OC)c2=O)c2ccc(C(C)C)cc(OC)c2=O)cc1 | 27.1

system: HOP-18 NSCLC; assay: NCI tumour cell line growth inhibition, 48 h

Compound | TGI [µM]
CCOC(=O)C1C(c2ccccc2)=C(c2ccccc2)C(c2ccccc2)=C1c1ccccc1 | 82.4
Cc1c(NC(=O)/C(=N/NC(=S)N=N)C2C(=O)CC(C)(C)CC2=O)c(O)c2ccccc2c1O | 30.4
COC(=O)CCC1=NOC(CC2CC(CCC(=O)OC)=NO2)C1 (stereo unspecified) | > 100
